# Tests used:
# Assay type in all cases: in vivo
# [1] = tested on: barnyardgrass (Echinochloa crus-galli); assay: Test B flooded paddy test; conditions: Rate 1000 g/ha, scale of 0 to 100 where 0 is no effect and 100 is complete control, visually evaluated after 13 to 15 days
# Outline: (§1)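 Plants were grown to the 2-leaf stage in flooded paddy conditions before treatment with the formulated test chemicals. After 13 to 15 days in a greenhouse, each species was visually compared with untreated controls and rated from 0 (no effect) to 100 (complete control).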
# [2] = tested on: duck salad (Heteranthera limosa); assay: Test B flooded paddy test; conditions: Rate 1000 g/ha, scale of 0 to 100 where 0 is no effect and 100 is complete control, visually evaluated after 13 to 15 days
# Outline: as §1
# [3] = tested on: rice (Oryza saliva); assay: Test B flooded paddy test; conditions: Rate 1000 g/ha, scale of 0 to 100 where 0 is no effect and 100 is complete control, visually evaluated after 13 to 15 days
# Outline: as §1
# [4] = tested on: smallflower flatsedge (Cyperus difformis); assay: Test B flooded paddy test; conditions: Rate 1000 g/ha, scale of 0 to 100 where 0 is no effect and 100 is complete control, visually evaluated after 13 to 15 days
# Outline: as §1
# [5] = tested on: rice (Oryza saliva); assay: Test C flooded paddy test; conditions: for Rice plant response rating: scale 0 to 100, 0 no effect, 100 complete control
# Outline: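 Visual ratings (0 = no effect, 100 = complete control) were made 12–14 days after treatment, relative to greenhouse controls. Plants in the flooded paddy test were rice, smallflower flatsedge, duck salad and barnyardgrass, treated at the 2-leaf stage.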
# [6] = tested on: Sunflower; assay: Test C preemergence; conditions: Rate 250 g/ha, visual evaluation after 12 to 14 days
# [7] = tested on: Surinam grass (Brachiaria decumbens); assay: Test C postemergence
# Outline: (§2)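 Herbicidal effect is a visual 0–100 score (100 = complete control) assigned versus untreated plants, 12 to 14 days after spraying in the greenhouse. Test compounds were applied in a non-phytotoxic, surfactant-containing solvent.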
# [8] = tested on: bermudagrass (Cynodon dactylon); assay: Test C postemergence
# Outline: as §2
# [9] = tested on: chickweed (Stellaria media); assay: Test C postemergence
# Outline: as §2
# [10] = tested on: corn (Zea mays); assay: Test C postemergence
# Outline: as §2
# [11] = tested on: giant foxtail (Setaria faberii); assay: Test C postemergence
# Outline: as §2
# [12] = tested on: goosegrass (Eleusine indica); assay: Test C postemergence
# Outline: as §2
# [13] = tested on: lambsquarters (Chenopodium album); assay: Test C postemergence
# Outline: as §2
# [14] = tested on: morningglory (Ipomoea hederacea); assay: Test C postemergence
# Outline: as §2
# [15] = tested on: velvetleaf (Abutilon theophrasti); assay: Test C postemergence
# Outline: as §2
# [16] = tested on: yellow nutsedge (Cyperus esculentus); assay: Test C postemergence
# Outline: as §2
# [17] = flooded paddy test, Rate 62 g/ha, scale 0 to 100 (0 no effect, 100 complete control)
# [18] = flooded paddy test, Rate 125 g/ha, scale 0 to 100 (0 no effect, 100 complete control)
# [19] = Rate 62 g/ha, scale 0 to 100, 0 no effect, 100 complete control
# [20] = Rate 125 g/ha, scale 0 to 100, 0 no effect, 100 complete control
# [21] = Rate 250 g/ha, scale 0 to 100 (0 no effect, 100 complete control)
structure (smiles),measurement,setting,value
CC(C)(C)c1ccn(C2CCN(c3ccc(Cl)c(Br)c3)C2=O)n1 (stereo not drawn) [Compound 56],"Plant response rating, Barnyardgrass",[1],80
same,"Plant response rating, Ducksalad",[2],20
same,"Plant response rating, Rice",[3],0
same,"Plant response rating, Flatsedge",[4],90
same,Rice plant response rating,"[5]; Flooded Paddy, Rate 250 g/ha",0
same,Rice plant response rating,"[5]; Flooded Paddy, Rate 500 g/ha",0
same,"Plant response rating, Rice",[5]; [17],0
same,"Plant response rating, Rice",[5]; [18],0
same,"Plant response rating (0 to 100), Sunflower",[6],0
CC(C)(C)c1ccn(C2CCN(c3cccc(Br)c3)C2=O)n1 (stereo not drawn) [Compound 33],"Plant response rating, Barnyardgrass",[1],0
same,"Plant response rating, Ducksalad",[2],0
same,"Plant response rating, Rice",[3],0
same,"Plant response rating, Flatsedge",[4],0
same,"Plant response rating (0 to 100), Sunflower",[6],30
CCC(C)c1ccn(C2SCN(c3cccc(C(F)(F)F)c3)C2=O)n1 (stereo not drawn) [Compound 20],"Plant response rating, Barnyardgrass",[1],100
same,"Plant response rating, Ducksalad",[2],100
same,"Plant response rating, Rice",[3],100
same,"Plant response rating, Flatsedge",[4],100
same,"Plant response rating, Surinam grass",[7]; [19],0
same,"Plant response rating, Surinam grass",[7]; [20],0
same,"Plant response rating, Surinam grass",[7]; [21],0
same,"Plant response rating, Bermudagrass",[8]; [19],60
same,"Plant response rating, Bermudagrass",[8]; [20],90
same,"Plant response rating, Bermudagrass",[8]; [21],90
same,"Plant response rating, Chickweed",[9]; [19],50
same,"Plant response rating, Chickweed",[9]; [20],50
same,"Plant response rating, Chickweed",[9]; [21],70
same,"Plant response rating, Corn",[10]; [20],0
same,"Plant response rating, Corn",[10]; [21],0
same,"Plant response rating, Foxtail, Giant",[11]; [20],0
same,"Plant response rating, Foxtail, Giant",[11]; [21],70
same,"Plant response rating, Goosegrass",[12]; [20],20
same,"Plant response rating, Goosegrass",[12]; [21],40
same,"Plant response rating, Lambsquarters",[13]; [20],70
same,"Plant response rating, Lambsquarters",[13]; [21],80
same,"Plant response rating, Morningglory",[14]; [20],20
same,"Plant response rating, Morningglory",[14]; [21],20
same,"Plant response rating, Velvetleaf",[15]; [20],30
same,"Plant response rating, Velvetleaf",[15]; [21],30
same,"Plant response rating, Nutsedge",[16]; [20],0
same,"Plant response rating, Nutsedge",[16]; [21],0
same,Rice plant response rating,"[5]; Flooded Paddy, Rate 250 g/ha",60
same,Rice plant response rating,"[5]; Flooded Paddy, Rate 500 g/ha",70
same,"Plant response rating, Rice",[5]; [17],0
same,"Plant response rating, Rice",[5]; [18],20
same,"Plant response rating (0 to 100), Sunflower",[6],60
CCC(C)c1ccn(C2SCN(c3cccc(OC(F)(F)F)c3)C2=O)n1 (stereo not drawn) [Compound 32],"Plant response rating, Barnyardgrass",[1],100
same,"Plant response rating, Ducksalad",[2],100
same,"Plant response rating, Rice",[3],100
same,"Plant response rating, Flatsedge",[4],100
same,Rice plant response rating,"[5]; Flooded Paddy, Rate 250 g/ha",100
same,Rice plant response rating,"[5]; Flooded Paddy, Rate 500 g/ha",100
same,"Plant response rating, Rice",[5]; [17],0
same,"Plant response rating, Rice",[5]; [18],30
same,"Plant response rating (0 to 100), Sunflower",[6],70
O=C1C(n2ccc(C3CC3)n2)CCN1c1cccc(C(F)(F)F)c1 (stereo not drawn) [Compound 8],"Plant response rating, Barnyardgrass",[1],100
same,"Plant response rating, Ducksalad",[2],80
same,"Plant response rating, Rice",[3],90
same,"Plant response rating, Flatsedge",[4],100
same,"Plant response rating, Rice","[5]; Flooded Paddy, Rate 500 g/ha, scale 0 to 100",60
same,"Plant response rating, Rice","[5]; Flooded Paddy, Rate 1000 g/ha, scale 0 to 100",80
same,Rice plant response rating,"[5]; Flooded Paddy, Rate 250 g/ha",60
same,"Plant response rating, Rice",[5]; [17],0
same,"Plant response rating, Rice",[5]; [18],0
same,"Plant response rating (0 to 100), Sunflower",[6],0
CCC(C)c1ccn(C2OCN(c3cccc(C(F)(F)F)c3)C2=O)n1 (stereo not drawn) [Compound 24],"Plant response rating, Barnyardgrass",[1],100
same,"Plant response rating, Ducksalad",[2],100
same,"Plant response rating, Rice",[3],90
same,"Plant response rating, Flatsedge",[4],100
same,Rice plant response rating,"[5]; Flooded Paddy, Rate 250 g/ha",30
same,Rice plant response rating,"[5]; Flooded Paddy, Rate 500 g/ha",60
same,"Plant response rating, Rice",[5]; [17],0
same,"Plant response rating, Rice",[5]; [18],20
same,"Plant response rating (scale 0 to 100), Rice","[5]; flooded paddy test, Rate 16 g/ha, visually evaluated after 12 to 14 days, 0 = no effect, 100 = complete control",20
same,"Plant response rating (scale 0 to 100), Rice","[5]; flooded paddy test, under head Rate 16 g/ha, (own rate not given), after 12 to 14 days",20

# — patent US7138361B2, “Herbicidal heterocycles” (E. I. du Pont de Nemours and Company, priority 2000, dated 2006)
